Test results as given in patent US20250052751A1, “COMPOSITIONS AND METHODS FOR DIAGNOSING AUTOIMMUNE AQUAPORINOPATHY” (The Regents of the University of California, priority 2023, published 2025).

Experiments:
[1] = test system: WT, RAG1^−/−, TCRa^−/− and JHT recipient mice; test: Adoptive transfer of Th17-polarized peptide-specific T cells, clinical and histologic CNS disease; type: in vivo, mouse
Text: FIGS. 5A-5B. Pathogenic AQP4-specific Th17 cells induce sustained CNS autoimmune disease in T cell-deficient mice. (FIG. 5A) Th17-polarized AQP4 p133-149-specific T cells from AQP4−/− mice were transferred into WT, T cell- and B cell-deficient (T cell-/B cell-, RAG1^−/−), T cell-deficient (T cell-, TCRa^−/−) and B cell-deficient (B cell-, JHT) recipient mice then scored for clinical disease. Donor Th17-polarized MOG p35-55-specific T cells were transferred into WT recipient mice as a control. Results are representative of four experiments (n=5 per group). (FIG. 5B) Recipient mice were evaluated for histologic evidence of meningeal and CNS parenchymal inflammation (H&E). Results are representative of two experiments (2-4 mice/group/time-point/experiment).
CNS autoimmune disease induction and analysis. For adoptive induction of CNS disease with primary lymphocytes, mice were immunized s.c. with 100 μg AQP4 or MOG peptides in CFA containing 400 μg M. tuberculosis H37Ra (Difco Laboratories). After 10-12 days, lymph node cells were cultured with 15 μg/ml antigen for 3 days with 20 ng/ml IL-23 and 10 ng/ml IL-6, under Th17 polarizing conditions. 2×10^7 cells were injected i.v. into naïve recipients, which then received 200 ng B. pertussis toxin (Ptx) (List Biological) i.p. on days 0 and 2. Clinical scores: 0=no disease, 1=tail tone loss, 2=impaired righting, 3=severe paraparesis or paraplegia, 4=quadraparesis, and 5=moribund or death.
For induction of CNS disease by I-A^b:AQP4 tet-sorted cells targeted cells, primary lymph node cells from AQP4 or WT mice were restimulated with […] antigen and irradiated splenocytes every 10 days. Percent tetramer binding was monitored by flow cytometry. In preparation for adoptive transfer, cells were washed and cultured with 1:10 T cell-to-irradiated splenocytes under polarizing conditions for 3 days. CD4^+ cells were negatively sorted using magnetic beads (Miltenyi). 5×10^6 were transferred to TCRa^−/− recipients. 200 ng Ptx was given on days 0 and 2.
Histopathology. Brain, spinal cord, optic nerve, kidney and muscle tissue samples were fixed in 10% neutral-buffered formalin, paraffin-embedded, sectioned and stained with H&E. Meningeal and parenchymal inflammatory lesions and areas of demyelination were assessed in a blinded manner as described (39).

[2] = target: T1, MHC class II I-A^b molecules (Mus musculus, UniProt P14434+P14483); test: I-A^b affinity assay (competitive binding against a radiolabeled high-affinity peptide); details: purified I-A^b; for peptide binding affinity for I-A^b: unlabeled peptide vs radiolabeled high-affinity competitor peptide
T1 construct: made in house
T1 sequence (P14434 24-256): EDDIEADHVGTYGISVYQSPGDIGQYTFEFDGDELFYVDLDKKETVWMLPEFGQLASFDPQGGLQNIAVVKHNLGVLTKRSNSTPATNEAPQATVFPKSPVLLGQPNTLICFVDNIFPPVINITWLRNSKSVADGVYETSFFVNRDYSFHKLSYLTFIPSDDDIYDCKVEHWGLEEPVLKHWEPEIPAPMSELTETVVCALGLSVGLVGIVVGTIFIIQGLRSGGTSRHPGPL
T1 sequence (P14483 28-265): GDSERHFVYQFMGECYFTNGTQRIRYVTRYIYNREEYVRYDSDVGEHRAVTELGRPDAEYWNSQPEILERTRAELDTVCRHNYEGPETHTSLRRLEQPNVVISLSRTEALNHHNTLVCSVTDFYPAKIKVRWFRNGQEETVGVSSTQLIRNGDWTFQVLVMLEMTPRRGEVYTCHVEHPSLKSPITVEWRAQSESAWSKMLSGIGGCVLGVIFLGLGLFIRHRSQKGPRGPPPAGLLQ
Method: FIGS. 2A-2F. Pathogenic AQP4 determinants bind I-A^b with high affinity and elicit proliferation of AQP4: I-A^b-specific TCR-bearing T cells in AQP4-deficient mice. (FIG. 2A) WT or AQP4^−/− mice were immunized s.c. with peptides indicated. Peptide-specific proliferation of draining lymph node cells was measured by 3H-thymidine incorporation (mean±SEM, representative of five experiments). (FIG. 2B) Lymph node cells from AQP4 immunized WT or AQP4^−/− mice were cultured for 3 days with cognate antigen under Th17 polarizing conditions. AQP4 p133-149- and p202-218-specific Th17 cells from AQP4/donors induce paralysis in WT recipient mice. (FIG. 2C) IEDB, an in silico method for predicting determinants within proteins that bind MHC alleles, was used to identify AQP4 amino acid sequences anticipated to bind I-A^b for recognition by AQP4-specific/I-A^b-restricted CD4^+ T cells. 1/IC50 is plotted against the first amino acid for each overlapping AQP4 15 mer. Peaks correspond to increased predicted binding affinity. (FIG. 2D) Purified I-A^b molecules were tested biochemically for peptide binding affinity using a competitive binding assay between a radiolabeled high-affinity competitor peptide and unlabeled peptides (22). Lower IC50 values indicate higher binding affinity. Boxed amino acids designate the core binding regions. (FIGS. 2E-2F) Lymph node T cells isolated from WT or AQP4−/− mice immunized with AQP4 p133-149 or p202-218 were stained with I-A^b:p133-149 and […] tetramers, bead-enriched and analyzed by flow cytometry. […] Each data point represents one mouse. ****p<0.0001 (Mann Whitney U test).
Both AQP4 p133-149 and p202-218 are predicted to bind MHC II (I-A^b) with high affinity according to the Immune Epitope Database (IEDB) (FIG. 2C), an in silico method for predicting determinants within proteins that bind allele-specific MHC molecules for presentation to T cells (21). We have now examined AQP4 peptide affinity for I-A^b biochemically. I-A^b molecules that were purified by affinity chromatography were tested in a competitive binding assay between a radiolabeled high-affinity competitor peptide and unlabeled peptides (22). Indeed, peptides containing the two pathogenic AQP4 T cell determinants bound I-A^b with higher affinity than the nonpathogenic AQP4 p24-35 T cell epitope or MOG p35-55 (FIG. 2D).
I-A^b affinity Assay. Purification of MHC class II I-A^b molecules by affinity chromatography, and the performance of assays based on the inhibition of binding of a high affinity radiolabeled peptide to quantitatively measure peptide binding, were performed as described (22). Lower IC50 values indicate higher binding affinity. Excellent binders have affinities less than 100 nM and good binders have affinities less than 1000 nM.

[3] = donor Th17 cells from AQP4^−/− mice, recipient WT and JHT mice

Sequence	clinical and histologic CNS disease after transfer of peptide-specific Th17 cells ([1]; WT recipient mice)	I-A^b binding affinity relative to MOG p35-55 ([2]; competitive binding assay)	peptide binding affinity for I-A^b [2]	peptide binding affinity for I-A^b ([2]; listed as p202-218)	CNS autoimmunity after transfer of tet^+-sorted T cells ([1]; I-A^b:AQP4 p133-149 tet^+-sorted T cells from immunized AQP4^−/− mice)	onset of paralysis after transfer [1, 3] [days]	time from onset to complete recovery [1, 3] [days]	clinical and histologic CNS disease after transfer of peptide-specific Th17 cells ([1]; recipient RAG1^−/− and TCRa^−/− mice)	CNS inflammation (H&E) ([1]; recipient WT and JHT mice, day 21)
LFAINYTGASMNPARSF [AQP4 p202-218]	capable of inducing paralysis and CNS inflammation in WT mice	more than ten times greater affinity than MOG p35-55	highest affinity among peptides examined in this report	bound I-A^b avidly					
LYLVTPPSVVGGLGVT [AQP4 p133-149]	capable of inducing paralysis and CNS inflammation in WT mice		bound I-A^b avidly		transferred CNS autoimmunity to WT mice	~7	4 to 5	persistent paralysis and CNS inflammation	no longer evident after recovery
